# Columns and labels:
# B. cereus ATCC 11778 = assay: MIC, NCCLS broth microdilution, B. cereus; format: cell-based, Bacillus cereus
# Outline: (§1)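 Following NCCLS guidance, in vitro activity is measured as MIC with the microtiter broth microdilution reference method. For yeast, the procedure recommended in the 1995 Manual of Clinical Microbiology applies.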
# C. albicans ATCC 38247 = assay: MIC, antifungal assay, C. albicans; format: cell-based, Candida albicans
# Outline: as §1
# E. faecalis ATCC 29212 = assay: MIC, NCCLS broth microdilution, E. faecalis; format: cell-based, Enterococcus faecalis
# Outline: as §1
# S. aureus ATCC 13709 = assay: MIC, NCCLS broth microdilution, S. aureus MSSA; format: cell-based, Staphylococcus aureus; conditions: S. aureus ATCC 13709, methicillin sensitive strain (MSSA)
# Outline: as §1
# S. aureus ATCC 27660 = assay: MIC, NCCLS broth microdilution, S. aureus MRSA; format: cell-based, Staphylococcus aureus; conditions: S. aureus ATCC 27660, methicillin resistant strain (MRSA)
# Outline: as §1
# S. aureus ATCC 33591 = assay: MIC, NCCLS broth microdilution, S. aureus ATCC 33591; format: cell-based, Staphylococcus aureus
# Outline: as §1
# S. pneumoniae ATCC 49619 = assay: MIC, NCCLS broth microdilution, S. pneumoniae; format: cell-based, Streptococcus pneumoniae
# Outline: as §1
# E. faecium ATCC 51559 = assay: MIC, E. faecium VRE; format: cell-based, Enterococcus faccium; conditions: Table C; E. faecium ATCC 51559, vancomycin resistant strain (VRE)
# Procedure: (§2) Compounds according to this invention were screened for their in vitro activities against selected species of bacteria and fungi. The minimal inhibition concentration (MIC) of these compounds was determined using the National Committee for Clinical Laboratory Standards (NCCLS) broth microdilution assay in microtiter plates, as set forth in: (1) the guidelines of the National Committee for Clinical Laboratory Standards (NCCLS) Document M7-A4 (NCCLS, 1997); (2) the guidelines of the National Committee for Clinical Laboratory Standards (NCCLS) Document M11-A4 (NCCLS, 1997); and (3) the guidelines and reference method of the National Committee for Clinical Laboratory Standards (NCCLS) Document M27-T (NCCLS, 1995). For antifungal assays, the method recommended in Murray, P R., 1995 Manual of Clinical Microbiology (ASM Press, Washington, D.C.), was employed.
# (§3) Additionally, some compounds were screened against Enterococcus faccium (ATCC 51559, a vancomycin resistant strain (VRE)), Staphylococcus epidermidis (ATCC 12228), Streptococcus pneumoniae (ATCC 51422, a penicillin resistant strain (PRSP)), and/or Streptococcus pyogenes (ATCC 49399).
# [1] = tested on: S. epidermidis ATCC 12228; assay: MIC, S. epidermidis; format: cell-based, Staphylococcus epidermidis; conditions: Table C
# Procedure: as §2, §3
# S. pneumoniae ATCC 51422 = assay: MIC, S. pneumoniae PRSP; format: cell-based, Streptococcus pneumoniae; conditions: Table C; S. pneumoniae ATCC 51422, penicillin resistant strain (PRSP)
# Procedure: as §2, §3
# S. pyogenes ATCC 4399 = assay: MIC, S. pyogenes; format: cell-based, Streptococcus pyogenes; conditions: Table C
# Procedure: as §2, §3
# [2] = MIC, Table C (organism not given); format: cell-based
# Procedure: as §2, §3
smiles,measurement,setting,value
Cn1cc(NC(=O)c2cc(NC(=O)c3ccc(Cl)cc3F)cn2CCCN2CCC(F)(F)CC2)cc1-c1nc2cccnc2[nH]1 [Compound A-43],"Minimum Inhibitory Concentration (MIC), organism A",B. cereus ATCC 11778,+++ (MIC ≦ 4 μg/mL)
same,"Minimum Inhibitory Concentration (MIC), organism B",C. albicans ATCC 38247,>32 µg/mL
same,"Minimum Inhibitory Concentration (MIC), organism C",E. faecalis ATCC 29212,++ (4 < MIC < 12 μg/mL)
same,"Minimum Inhibitory Concentration (MIC), organism D",S. aureus ATCC 13709,++ (4 < MIC < 12 μg/mL)
same,"Minimum Inhibitory Concentration (MIC), organism E",S. aureus ATCC 27660,+++ (MIC ≦ 4 μg/mL)
same,"Minimum Inhibitory Concentration (MIC), organism F",S. aureus ATCC 33591,++ (4 < MIC < 12 μg/mL)
same,"Minimum Inhibitory Concentration (MIC), organism G",S. pneumoniae ATCC 49619,+++ (MIC ≦ 4 μg/mL)
same,"Minimum Inhibitory Concentration (MIC), organism A",E. faecium ATCC 51559,+++ (MIC ≦ 4 pg/mL)
same,"Minimum Inhibitory Concentration (MIC), organism B",[1],+++ (MIC ≦ 4 pg/mL)
same,"Minimum Inhibitory Concentration (MIC), organism C",S. pneumoniae ATCC 51422,++ (4 < MIC < 12 μg/mL)
same,"Minimum Inhibitory Concentration (MIC), organism D",S. pyogenes ATCC 4399,++ (4 < MIC < 12 μg/mL)
same,"Minimum Inhibitory Concentration (MIC), organism E",[2],+++ (MIC ≦ 4 pg/mL)

# Reference: patent US7265129B2, “Anti-infective biaryl compounds” (priority 2002, dated 2007)
